Experimental data reported in patent CN105367624A, “一种LLVV-Hemorphin-6肽的制备方法和用途” (Individual, priority 2015, dated 2016).
Where no end group is shown, it is not given here.

Tested on: 4T1细胞
Assay: In vitro antitumor evaluation: MTT cell viability assay in 4T1 cells
Format: cell-based
Settings: 48 h

LLVVYPWTQR [LLVV-Hemorphin-6肽]
细胞抑制效果 (cell inhibition effect), peptide alone at high concentration (peptide 10 μM): 存在一定的细胞抑制效果 | 细胞抑制率 (cell inhibition rate), peptide alone (peptide 0.0001-10 μM): 较低
